We go through ten compounds from US20240383893A1, “Hydroxamic Acid Compound Having ENPP1 Inhibitory Activity and Use Thereof” (Haihe Biopharma Co., Ltd., priority 2021, published 2024).

The structures appear in SMILES notation. Read-outs that look alike come from different tables or passages of the source. Some results are limits rather than exact numbers.

Data set [1] can be described thus: Preliminary pharmacokinetic testing in ICR mice (gavage 5 mg/kg, intravenous 1 mg/kg). The class given is in vivo. To be noted: male, mouse, plasma; for AUC(0-t) / half-life / Cmax: oral administration (5 mg/kg); for Cmax: read-out: Cmax. How it is done:
1. 6 healthy ICR mice, male, weighing 30-35 g, were randomly divided into 2 groups with 3 mice in each group. The tested compound was administered by gavage (5 mg/kg) and intravenous injection (1 mg/kg), respectively:
Feeding uniformly 4 hours after administration.

Data set [2] addresses T1, ENPP1 (hENPP1-ECD-His) (Homo sapiens (Human), UniProt P22413). As to the kind of experiment: biochemical.
The target of data set [3] is T1, ENPP1 (hENPP1-ECD-His).

T1 sequence (P22413 98-925): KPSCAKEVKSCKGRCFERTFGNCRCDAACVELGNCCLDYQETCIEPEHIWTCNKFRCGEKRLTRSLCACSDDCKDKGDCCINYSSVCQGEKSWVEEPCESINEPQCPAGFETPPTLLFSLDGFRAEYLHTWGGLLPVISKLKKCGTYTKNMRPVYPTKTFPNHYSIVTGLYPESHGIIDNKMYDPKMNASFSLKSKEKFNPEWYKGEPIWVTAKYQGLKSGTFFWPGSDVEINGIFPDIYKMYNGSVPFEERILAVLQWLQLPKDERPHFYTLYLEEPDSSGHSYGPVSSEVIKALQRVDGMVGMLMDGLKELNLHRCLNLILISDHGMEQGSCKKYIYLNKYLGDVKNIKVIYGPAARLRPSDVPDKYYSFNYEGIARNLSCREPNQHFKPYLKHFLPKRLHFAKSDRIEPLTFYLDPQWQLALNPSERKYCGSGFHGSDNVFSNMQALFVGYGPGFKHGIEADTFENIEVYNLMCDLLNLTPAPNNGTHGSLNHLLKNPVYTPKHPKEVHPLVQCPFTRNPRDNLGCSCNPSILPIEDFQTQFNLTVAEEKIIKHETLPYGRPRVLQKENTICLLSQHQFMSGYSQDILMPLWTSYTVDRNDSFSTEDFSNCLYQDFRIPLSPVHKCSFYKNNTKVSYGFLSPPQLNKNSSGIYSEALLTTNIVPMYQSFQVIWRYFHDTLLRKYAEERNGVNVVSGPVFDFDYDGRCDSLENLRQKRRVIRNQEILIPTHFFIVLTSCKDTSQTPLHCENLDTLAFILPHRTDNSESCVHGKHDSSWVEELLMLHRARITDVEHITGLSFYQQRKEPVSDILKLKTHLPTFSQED

Turning to `COc1ccc2c(Oc3ccc(C(C)(C)C(=O)NO)cc3)ccnc2n1` [Compound 42], in data set [1], the AUC(0-t) came out at 887 ng·h/mL, the half-life was 1.3 h and the Cmax amounted to 1490 ng/mL.

In data set [2], `COc1ccc2c(Oc3ccc(C(F)C(=O)NO)cc3)ccnc2n1` (stereo not drawn) [Compound 43] came in with a concentration for half-maximal inhibition (IC50) of 5.3 nM.

Take `Cn1ncc2c(Nc3ccc(C(C)(C)C(=O)NO)cc3)ncnc21` [Compound 68]: in data set [1], the AUC(0-t) came out at 161 ng·h/mL, the half-life was 2.44 h and the Cmax came to 244 ng/mL. Also, the bioavailability in data set [1] (oral administration (5 mg/kg) vs intravenous (1 mg/kg), read-out: F %) stood at 20.2%. Moreover, the IC50 in data set [3] turned out to be 4.8 nM.

In turn, `CCOC(C(=O)NO)c1ccc(Oc2ccnc3nc(OC)ccc23)cc1` (stereo not drawn) [Compound 86] yielded an IC50 in data set [2] of 3.7 nM.

In data set [2], `CNc1ccc2c(Oc3ccc(C(C)(C)C(=O)NO)cc3)ccnc2c1` [Compound 102] displayed a half-maximal inhibitory concentration (IC50) of 389 nM. This IC50 lies about 110-fold higher than the previous one.

In the case of `COc1ccc2c(Oc3ccc(C4(C(=O)NO)CCOCC4)cc3)ccnc2n1` [Compound 107], in data set [1], the AUC(0-t) was found to be 463 ng·h/mL, the half-life is 2 h and the Cmax is 640 ng/mL.

Take `COc1ccc2c(Oc3ccc(C(C)(C)C(=O)NO)c(F)c3)ccnc2n1` [Compound 110]: in data set [1], the AUC(0-t) was 1590 ng·h/mL, the half-life is 3.9 h and the Cmax was determined as 2370 ng/mL. Also, the bioavailability in data set [1] (po, 5 mg/kg, read-out: oral bioavailability) was greater than 20%.

In turn, `COc1ccc2c(Oc3cnn(C(C)(C)C(=O)NO)c3)ccnc2n1` [Compound 155] registered an IC50 in data set [2] of 28 nM.

In data set [2], `COc1cc2nccc(Nc3cnn(C4(C(=O)NO)CCOCC4)c3)c2cn1` [Compound 183] gave an IC50 of 6.8 nM.

The compound `CC(C)C(C(=O)NO)c1ccc(Nc2ncnc3c2cnn3C)cc1` (stereo not drawn) [Compound 199] showed an IC50 in data set [2] of 317 nM. This IC50 lies about 47-fold higher than the previous one.

By AUC(0-t) is commonly meant exposure summed from dosing to a finite time, without extrapolation to infinity. For orientation: half-life means the time needed for the level to fall by half in the phase considered. Broadly, the Cmax is the peak of the concentration-time curve. The IC50 is the concentration at which inhibition is half-maximal. Higher therefore signals weaker potency in that assay.
